This note sets out measurements from ChEMBL document CHEMBL4052656, “The synthesis and evaluation of triazolopyrimidines as anti-tubercular agents” (Bioorg Med Chem, 2017).

Each structure is given as a SMILES string. Calls of active or inactive are those of the source. The calls are words filed in the database; no cut-off is given here.

Data set [1] is described as follows: Selectivity index, ratio of IC50 for human HepG2 cells to MIC90 for Mycobacterium tuberculosis H37Rv. The note with it: read-out: Selectivity Index. It counts as toxicity.
Data set [2] concerns Mycobacterium tuberculosis. In words: Bactericidal activity against replicating Mycobacterium tuberculosis H37Rv after 21 days by agar dilution method. It counts as functional. (In general: In agar dilution the substance is mixed into plates at graded concentrations.)
Data set [3] relates to Mycobacterium tuberculosis. In words: Bacteriostatic activity against replicating Mycobacterium tuberculosis H37Rv by agar dilution method. It counts as functional.

As to `COc1ccc(CCNc2cc(-c3ccc(F)cc3)nc3ncnn23)cc1`, the selectivity ratio in data set [1] was over 21.

As for `FC(F)(F)Oc1ccc(CCNc2cc(-c3ccccc3)nc3ncnn23)cc1`, the result in data set [2] was inactive. Moreover, the outcome in data set [3] was Active.

As for `COc1ccc(CCNc2cc(-c3ccccn3)nc3ncnn23)cc1`, the outcome in data set [2] was inactive. In addition, in data set [3], the result was Active.

Regarding `COc1ccc(CC(=O)Nc2cc(-c3ccccc3)nc3ncnn23)cc1`, the result in data set [2] was inactive. The outcome in data set [3] was Active.
